# Results from PubChem BioAssay (NCI).
#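 96-well plates; 48 h exposure; 5 concentrations. Endpoints by linear interpolation between flanking doses. Not reached: highest tested concentration assigned. GI50: concentration for 50% inhibition of growth. TGI: concentration producing complete growth inhibition.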
# Tests used:
# Assay in all cases: NCI anticancer screen, dose series, 48 h
# 786-0 renal = system: 786-0 renal
# A498 renal = system: A498 renal
# ACHN renal = system: ACHN renal
# BT-549 breast = system: BT-549 breast
# CCRF-CEM leukemia = system: CCRF-CEM leukemia
# DU-145 prostate = system: DU-145 prostate
# HCT-116 colon = system: HCT-116 colon
# HCT-15 colon = system: HCT-15 colon
# HL-60(TB) leukemia = system: HL-60(TB) leukemia
# HOP-62 NSCLC = system: HOP-62 NSCLC
# IGROV1 ovarian = system: IGROV1 ovarian
# K-562 leukemia = system: K-562 leukemia
# KM12 colon = system: KM12 colon
# LOX IMVI melanoma = system: LOX IMVI melanoma
# MALME-3M melanoma = system: MALME-3M melanoma
# MDA-MB-231 breast = system: MDA-MB-231 breast
# NCI-H23 lung = system: NCI-H23 lung
# NCI-H460 lung = system: NCI-H460 lung
# NCI-H522 lung = system: NCI-H522 lung
# NCI/ADR-RES ovarian = system: NCI/ADR-RES ovarian
# OVCAR-3 ovarian = system: OVCAR-3 ovarian
# OVCAR-4 ovarian = system: OVCAR-4 ovarian
# OVCAR-5 ovarian = system: OVCAR-5 ovarian
# PC-3 prostate = system: PC-3 prostate
# RXF 393 renal = system: RXF 393 renal
# SF-268 CNS = system: SF-268 CNS
# SF-295 CNS = system: SF-295 CNS
# SNB-19 CNS = system: SNB-19 CNS
# SR leukemia = system: SR leukemia
# SW-620 colon = system: SW-620 colon
# T-47D breast = system: T-47D breast
# TK-10 renal = system: TK-10 renal
# U251 CNS = system: U251 CNS
# UACC-257 melanoma = system: UACC-257 melanoma
# UACC-62 melanoma = system: UACC-62 melanoma
smiles,measurement,setting,value
CCOC(=O)c1c(NC(=O)c2cccc(C(F)(F)F)c2)sc2c1CCC(=O)C2,GI50,786-0 renal,3.54 µM
same,TGI,786-0 renal,> 100 µM
same,GI50,A498 renal,> 100 µM
same,TGI,A498 renal,> 100 µM
same,GI50,ACHN renal,2.65 µM
same,TGI,ACHN renal,> 100 µM
same,GI50,BT-549 breast,1.61 µM
same,TGI,BT-549 breast,> 100 µM
same,GI50,CCRF-CEM leukemia,1.03 µM
same,TGI,CCRF-CEM leukemia,> 100 µM
same,GI50,DU-145 prostate,> 100 µM
same,TGI,DU-145 prostate,> 100 µM
same,GI50,HCT-116 colon,0.49 µM
same,TGI,HCT-116 colon,> 100 µM
same,GI50,HCT-15 colon,0.652 µM
same,TGI,HCT-15 colon,> 100 µM
same,GI50,HL-60(TB) leukemia,1.9 µM
same,TGI,HL-60(TB) leukemia,> 100 µM
same,GI50,HOP-62 NSCLC,5.2 µM
same,TGI,HOP-62 NSCLC,> 100 µM
same,GI50,IGROV1 ovarian,2.4 µM
same,TGI,IGROV1 ovarian,> 100 µM
same,GI50,K-562 leukemia,0.488 µM
same,TGI,K-562 leukemia,> 100 µM
same,GI50,KM12 colon,2.88 µM
same,TGI,KM12 colon,> 100 µM
same,GI50,LOX IMVI melanoma,0.633 µM
same,TGI,LOX IMVI melanoma,> 100 µM
same,GI50,MALME-3M melanoma,> 100 µM
same,TGI,MALME-3M melanoma,> 100 µM
same,GI50,MDA-MB-231 breast,3.5 µM
same,TGI,MDA-MB-231 breast,> 100 µM
same,GI50,NCI-H23 lung,3 µM
same,TGI,NCI-H23 lung,> 100 µM
same,GI50,NCI-H460 lung,2.66 µM
same,TGI,NCI-H460 lung,> 100 µM
same,GI50,NCI-H522 lung,0.514 µM
same,TGI,NCI-H522 lung,6.81 µM
same,GI50,NCI/ADR-RES ovarian,3.06 µM
same,TGI,NCI/ADR-RES ovarian,> 100 µM
same,GI50,OVCAR-3 ovarian,3.53 µM
same,TGI,OVCAR-3 ovarian,> 100 µM
same,GI50,OVCAR-4 ovarian,3.14 µM
same,TGI,OVCAR-4 ovarian,> 100 µM
same,GI50,OVCAR-5 ovarian,2.12 µM
same,TGI,OVCAR-5 ovarian,> 100 µM
same,GI50,PC-3 prostate,1.31 µM
same,TGI,PC-3 prostate,> 100 µM
same,GI50,RXF 393 renal,3.36 µM
same,TGI,RXF 393 renal,9.03 µM
same,GI50,SF-268 CNS,4.17 µM
same,TGI,SF-268 CNS,> 100 µM
same,GI50,SF-295 CNS,3.08 µM
same,TGI,SF-295 CNS,> 100 µM
same,GI50,SNB-19 CNS,1.53 µM
same,TGI,SNB-19 CNS,> 100 µM
same,GI50,SR leukemia,0.526 µM
same,TGI,SR leukemia,> 100 µM
same,GI50,SW-620 colon,0.445 µM
same,TGI,SW-620 colon,> 100 µM
same,GI50,T-47D breast,2.12 µM
same,TGI,T-47D breast,> 100 µM
same,GI50,TK-10 renal,5.09 µM
same,TGI,TK-10 renal,> 100 µM
same,GI50,U251 CNS,0.479 µM
same,TGI,U251 CNS,> 100 µM
same,GI50,UACC-257 melanoma,> 100 µM
same,TGI,UACC-257 melanoma,> 100 µM
same,GI50,UACC-62 melanoma,2.11 µM
same,TGI,UACC-62 melanoma,> 100 µM
